Source: publication PMC7076013 (Scientific Reports, 2020)

Columns and labels:
A375 cells [1] = experiment: Ann/PI double staining apoptosis, A375; type: cell-based, human
Protocol: The results were ex pressed as a p er centage of a v alue obtained for the untr eated control cells that was arbitrarily set to be 100%. A non- linear regression analysis of obtained results was done b y using Gr aphPad Prism software to calculat e IC50 values.
3.3. AnnexinV-FITC/P I and caspase det ection. […]
C ells were anal yz ed b y
C yFlow® Space Part ec u sing the PartecFloM ax ® software.
3.4. Cell staining with CFSE.
To quantify cell division rate, cells were incubated for 10 min at 37 °C in the presence of […]
subsequentl y quantified using flow c ytomet r y.
Cell motilit y and proliferation was anal yz ed using wound healing assa y. A375 and 518A2 cells were cultivated in 6-well plates until 80% of confluence in monola yers w as reached. Th e scratch was made using a steri le pipette tip which was drawn across the center of the wells. The scratch ed cell la yers w ere wash ed twice with fres h PBS to remove loose or damaged cells. Cells […]
4% paraformald eh yde (PFA) for 10 min at room temperature . The wounds were digitally photographed using a Ni kon inverted microscope TS2 with 5 MPIX cam era.
3.6. Measurement of intracellular nitric oxide

A375 cells [2] = experiment: Intracellular ROS/RNS (DHR), A375; type: cell-based, human; conditions: A375, 48 h; untreated 22.3 ± 5
Protocol: Given that analogue 5 is designed for NO release, the intracellular release of nitric oxide and production of reactive oxygen species (ROS)/reactive nitrogen species (RNS) was measured by means of redox-sensitive dyes — 4-amino-5-methylamino-2′,7′-difluorofluorescein diacetate (DAF) and dihydrorhodamine-123 (DHR) — after exposure for 48 h (Fig. 11). […] It is well documented that highly intensified production of ROS/RNS is connected with extreme cell damage and consequent cell death, whereas moderate ROS production is involved in the regulation of intracellular processes often involved in cell cycle arrest, proliferation, and differentiation[63],[64]. Apart from the moderate intracellular NO release, it was important to evaluate whether 5 released NO extracellularly. The production of NO from a nitrate group is a three-electron reduction process that can happen by a number of possible 2e^– and 1e^– pathways, commonly involving the initial liberation of a nitrite. A common method of detecting the release of NO in the extracellular compartment is the detection of nitrite ions by the Griess reaction, which quantifies the nitrite resulting from the oxidation of NO[66],[67]. […] Introduction of a nitrate moiety was also found to be beneficial in the case of rofecoxib. […]

[3] = tested on: four melanoma and four colon cancer cell lines; experiment: MTT and CV viability, whole panel of cell lines; type: cell-based; conditions: 48 h
Protocol: Both melanoma and colon cancer are tumor types tightly connected with inflammation, while the expression of COX-2 in the selected cell lines was highly variable. Since a lot of discrepancies were found in the literature concerning the expression of this enzyme[5],[48]–[53], both COX-1 and COX-2 expression was analyzed by Western blot. […] The cells were treated with a wide range of doses of 4a–c, 5, and 6 for 48 h and cell viability was determined by MTT (3-(4,5-dimethylthiazol-2-yl)-2,5-diphenyltetrazolium bromide) and CV (crystal violet) assays. The obtained IC50 values were similar for both assays (Table 1).
Reagents were obtained from Sigma (St. Louis, MO) unless indicated otherwise. […]
S ystems, Minneapolis, MN USA). […] After being detached b y tr ypsinization, cells were seeded in defined number as follows: 2.5 × 10^3 cells/well in 96-well plates for viability assessment and 2 × 10^4 cells/well in 24-well plates for flow cytometry. […]
Before treatment, non- adherent cells were removed. Compounds 4a- c, 5 and 6 were dissolved in DMSO and stored at −20 °C for a m onth. […]
The number of viable cel ls in culture was estimated by the MTT (3-(4,5- dimethylthiazol- 2-yl ) - 2,5- diphenyltetrazolium bromide) and CV (crystal violet) tests. Cells were incubated in the presence of compounds 4a- c, 5 and 6 for 48 h, then the viability was measured as described.4 […]

4-[4-(methylnitrooxy)phenyl]-3-(1,2-dicarba-closo-dodecaboranyl)furan-2(5 H)-one [Compound 5]
apoptosis (Ann/PI) (A375 cells [1]; A375, 48 h): did not promote significant apoptosis | apoptosis after prolonged incubation (A375 cells [1]; A375, 72 h total): not accompanied by the appearance of apoptotic cells | ROS/RNS production, mean fluorescence (DHR) (A375 cells [2]): 32.67 ± 8 | effect on cell viability across tested cell lines [3]: highest decrease in cell viability in all of the melanoma cell lines
